Results reported in patent US20110301222A1, “COMBINATION THERAPY FOR THE TREATMENT OF CANCER” (Isis Pharmaceuticals, Inc., priority 2008, published 2011).
Marks after values point to notes of the source that are not given here. In the oligonucleotide strings, read from the 5' end, every base follows the letter of its sugar. An asterisk marks phosphorothioate; unmarked linkages are phosphodiester. Other units and linkages are bracketed, terminal groups are in braces. A string of capitals states the bases alone. e = 2'-O-(2-methoxyethyl) (MOE); [5mC] = 5-methylcytosine; d = 2'-deoxy (DNA)

Tests used:
Format in all cases: in vivo, athymic nude mice
[1] = test system: A549 Non-Small Cell Lung Cancer Xenograft; experiment: A549 non-small cell lung cancer xenograft tumor volume in mice; settings: for Mean Tumor Volume: ASO 50 mg/kg i.v., docetaxel 10 mg/kg IP once weekly, from 8 days after first ASO dose; for Percent Reduction in Mean Tumor Volumes (observed): NSCLC A549, Day 50, vs. vehicle control, negative = reduction, docetaxel 10 mg/kg
Procedure: (§1) To determine whether the eIF-4E ASO complements or enhances the activity of docetaxel, the effect of the combined use of the eIF-4E ASO and docetaxel on tumor volume in 3 human xenograft cancer models is studied as follows.
(§2) Xenograft studies are carried out as described in Graff et al. (2005) Cancer Res. 65:7462-7469. Five million human cancer cells representing non-small cell lung cancer (line A549; ATCC, accession no. CCL-185), hormone refractory prostate cancer (line PC-3; ATCC, accession no. CRL-1435), and ER-/PR-HER2-breast cancer (line MDA-231; ATCC, accession no. HTB-26) are injected subcutaneously in the flank of 6-8 week old, athymic nude mice (Harlan, Indianapolis, Ind.) in a 1:1 mixture of serum-free growth medium and matrigel (Becton Dickinson, Bedford, Mass., catalogue # 354234). Mice are monitored daily for palpable tumors.
(§3) When tumor volumes reach ˜50-100 mm^3, mice are randomized to treatment groups (Graff et al. (2007) J. Clin. Invest. 117:2638-48). Body weight is monitored each time tumors are measured.
(§4) For treatment, all mice are injected intravenously with the eIF-4E ASO in saline in a total volume of 200 μl. The ASO consists of the nucleotide sequence 5′-[…]-3′ (SEQ ID NO:1), in which every internucleoside linkage is a phosphorothioate linkage, nucleotides 1-5 and 16-20 reading from the 5′ end to the 3′ end each comprise a 2′-O-(2-methoxyethyl) sugar, nucleotides 6-15 are 2′-deoxynucleotides, every cytosine residue is a 5-methylcytosine, and which is in the form of a sodium salt. The mice are first injected with an initial loading dose of 50 mg/kg ASO for 3 consecutive days, followed by 50 mg/kg thrice weekly thereafter.
(§5) Taxotere® (docetaxel) dosing begins 8 days after the first ASO dose to allow time for reduction of eIF-4E protein expression. Mice are dosed with 2.5 or 10 mg/kg Taxotere® (Sanofi-Aventis) intraperitoneally (IP) in 1% ethanol in 5% dextrose water in a volume of 200 μl once weekly for 3 weeks.
(§6) Tumor volumes are calculated measuring the largest (L) and smallest (W) diameters with a caliper. The formula is: Volume=L×W^2×0.534. Tumor volume data are transformed to a log scale to equalize variance across time and treatment groups. The log volume data are analyzed with a two-way repeated measures analysis of variance by time and treatment using SAS PROC MIXED software (SAS Institute Inc, Cary, N.C.) using the spatial power covariance structure. Treatment groups are compared to the control group at each time point and overall. The data may be plotted as means and standard errors for each treatment group versus time. Additivity is assessed in two ways: (1) as an overall interaction effect between the ASO and Taxotere® in the repeated measures analysis, and (2) by using the Bliss Independence method on the final day of the study (C. I. Bliss (1939) Ann. Appl. Biol. 26:585-615). These two methods yield the same results.
(§7) The observed percent reductions in mean tumor volume at the conclusion of each study resulting from the various treatments are shown in Table 4. These are calculated as: […]
(§8) The “Expected if Additive” percent reductions in mean tumor volume shown in Table 4 are calculated using the Bliss Independence definition of additivity, as follows: […]

[2] = test system: PC-3 Hormone-Refractory Prostate Cancer Xenograft; experiment: PC-3 hormone-refractory prostate cancer xenograft tumor volume in mice; settings: for Mean Tumor Volume: ASO 50 mg/kg i.v., Taxotere 10 mg/kg IP once weekly, from 8 days after first ASO dose; for Percent Reduction in Mean Tumor Volumes (observed): Prostate PC3, Day 35, vs. vehicle control, negative = reduction, Taxotere 10 mg/kg
Procedure: as §1, §2, §3, §4, §5, §6, §7, §8

[3] = test system: MDA-231 Breast Cancer Xenograft; experiment: MDA-231 breast cancer xenograft tumor volume in mice; settings: for Percent Reduction in Mean Tumor Volumes (observed): Breast MDA-231, Day 33, vs. vehicle control, negative = reduction, + = increase, Taxotere 2.5 mg/kg; for Mean Tumor Volume: ASO 50 mg/kg i.v., Taxotere 2.5 mg/kg IP once weekly, from 8 days after first ASO dose
Procedure: as §1, §2, §3, §4, §5, §6, §7, §8

Row | Compound | Mean Tumor Volume ([1]; Day 7) | Mean Tumor Volume ([1]; Day 10) | Mean Tumor Volume ([1]; Day 15) | Mean Tumor Volume ([1]; Day 18) | Mean Tumor Volume ([1]; Day 22) | Mean Tumor Volume ([1]; Day 25) | Mean Tumor Volume ([1]; Day 29) | Mean Tumor Volume ([1]; Day 32) | Mean Tumor Volume ([1]; Day 36) | Mean Tumor Volume ([1]; Day 39) | Mean Tumor Volume ([1]; Day 43) | Mean Tumor Volume ([1]; Day 46) | Mean Tumor Volume ([1]; Day 50) | Percent Reduction in Mean Tumor Volumes (observed) [1] | Mean Tumor Volume ([2]; Day 7) | Mean Tumor Volume ([2]; Day 12) | Mean Tumor Volume ([2]; Day 15) | Mean Tumor Volume ([2]; Day 19) | Mean Tumor Volume ([2]; Day 22) | Mean Tumor Volume ([2]; Day 27) | further results
1 | CC(=O)O[C@@]12CO[C@@H]1C[C@H](O)[C@@]1(C)C(=O)[C@H](O)C3=C(C)[C@@H](OC(=O)[C@H](O)[C@@H](NC(=O)OC(C)(C)C)c4ccccc4)C[C@@](O)([C@@H](OC(=O)c4ccccc4)[C@H]21)C3(C)C [Docetaxel, (2R,3S)—N-carboxy-3-phenylisoserine,N-tert-butyl ester, 13-ester with 5β-20-epoxy-1,2α,4,7β,10β,13α-hexahydroxytax-11-en-9-one 4-acetate 2-benzoate, trihydrate, reference compound] | 49.7 mm^3 | 56.7 mm^3 | 114.8 mm^3 | 70.0 mm^3 | 135.8 mm^3 | 170.1 mm^3 | 257.0 mm^3 | 261.5 mm^3 | 290.0 mm^3 | 282.3 mm^3 | 342.6 mm^3 | 310.2 mm^3 | 343.8 mm^3 | −29.6% | 46.3 mm^3 | 106.8 mm^3 | 134.7 mm^3 | 164.8 mm^3 | 171.7 mm^3 | 157.4 mm^3 | Mean Tumor Volume ([2]; Day 29): 162.7 mm^3; Mean Tumor Volume ([2]; Day 33): 161.6 mm^3; Mean Tumor Volume ([2]; Day 35): 167.0 mm^3; Percent Reduction in Mean Tumor Volumes (observed) [2]: −69.5%*; Percent Reduction in Mean Tumor Volumes (observed) [3]: −1.4%; Mean Tumor Volume ([3]; Day 5): 78.7 mm^3; Mean Tumor Volume ([3]; Day 8): 130.1 mm^3; Mean Tumor Volume ([3]; Day 12): 180.9 mm^3; Mean Tumor Volume ([3]; Day 15): 221.0 mm^3; Mean Tumor Volume ([3]; Day 19): 270.3 mm^3; Mean Tumor Volume ([3]; Day 22): 333.9 mm^3; Mean Tumor Volume ([3]; Day 26): 384.9 mm^3; Mean Tumor Volume ([3]; Day 29): 450.4 mm^3; Mean Tumor Volume ([3]; Day 33): 529.6 mm^3
2 | d(P-thio) ([2′-O-(2-methoxyethyl)] m5rU-([2′-O-(2-methoxyethyl)] rG-([2′-O-(2-methoxyethyl)] m5rU-([2′-O-(2-methoxyethyl)] m5rC-([2′-O-(2-methoxyethyl)] rA-T-A-T-T-m5C-m5C-T-G-G-A-([2′-O-(2-methoxyethyl)] m5rU-([2′-O-(2-methoxyethyl)] m5rC-([2′-O-(2-methoxyethyl)] m5rC-([2′-O-(2-methoxyethyl)] m5rU-([2′-O-(2-methoxyethyl)] m5rU) (antisense eT*eG*eT*e[5mC]*eA*dT*dA*dT*dT*d[5mC]*d[5mC]*dT*dG*dG*dA*eT*e[5mC]*e[5mC]*eT*eT) [eIF-4E ASO] | 52.7 mm^3 | 69.4 mm^3 | 113.7 mm^3 | 79.1 mm^3 | 139.5 mm^3 | 149.0 mm^3 | 220.1 mm^3 | 249.5 mm^3 | 256.6 mm^3 | 239.1 mm^3 | 313.2 mm^3 | 292.3 mm^3 | 404.0 mm^3 | −17.3% | 49.8 mm^3 | 88.3 mm^3 | 130.3 mm^3 | 159.0 mm^3 | 218.8 mm^3 | 294.5 mm^3 | Mean Tumor Volume ([2]; Day 29): 343.9 mm^3; Mean Tumor Volume ([2]; Day 33): 424.0 mm^3; Mean Tumor Volume ([2]; Day 35): 491.2 mm^3; Percent Reduction in Mean Tumor Volumes (observed) [2]: −10.2%; Percent Reduction in Mean Tumor Volumes (observed) [3]: +16.6%; Mean Tumor Volume ([3]; Day 5): 78.9 mm^3; Mean Tumor Volume ([3]; Day 8): 129.4 mm^3; Mean Tumor Volume ([3]; Day 12): 166.6 mm^3; Mean Tumor Volume ([3]; Day 15): 221.0 mm^3; Mean Tumor Volume ([3]; Day 19): 268.2 mm^3; Mean Tumor Volume ([3]; Day 22): 356.3 mm^3; Mean Tumor Volume ([3]; Day 26): 435.9 mm^3; Mean Tumor Volume ([3]; Day 29): 574.1 mm^3; Mean Tumor Volume ([3]; Day 33): 626.2 mm^3; Effect on mean tumor volume (in words) ([3]; breast cancer model, ASO alone): non-statistically significant increase in mean tumor volume
